Assay results as given in PubChem BioAssay (NCI).
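Exposure lasted 48 hours, with cells grown in 96-well plates and compounds tested at five concentrations. The concentration for full growth arrest is given as TGI.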

Key:
Assay in all cases: inhibition of tumour cell growth, NCI panel, 48 h
MDA-MB-231 breast = tested on: MDA-MB-231 breast
KM12 colon = tested on: KM12 colon
OVCAR-3 ovarian = tested on: OVCAR-3 ovarian
NCI-H226 lung = tested on: NCI-H226 lung
U251 CNS = tested on: U251 CNS
CCRF-CEM leukemia = tested on: CCRF-CEM leukemia
PC-3 prostate = tested on: PC-3 prostate
K-562 leukemia = tested on: K-562 leukemia
OVCAR-8 ovarian = tested on: OVCAR-8 ovarian
M14 melanoma = tested on: M14 melanoma
SF-268 CNS = tested on: SF-268 CNS
SNB-75 CNS = tested on: SNB-75 CNS
SK-OV-3 ovarian = tested on: SK-OV-3 ovarian
EKVX NSCLC = tested on: EKVX NSCLC
IGROV1 ovarian = tested on: IGROV1 ovarian
A549 NSCLC = tested on: A549 NSCLC
SNB-19 CNS = tested on: SNB-19 CNS
T-47D breast = tested on: T-47D breast
BT-549 breast = tested on: BT-549 breast
A498 renal = tested on: A498 renal
MALME-3M melanoma = tested on: MALME-3M melanoma
786-0 renal = tested on: 786-0 renal
SF-539 CNS = tested on: SF-539 CNS
UACC-257 melanoma = tested on: UACC-257 melanoma
OVCAR-4 ovarian = tested on: OVCAR-4 ovarian
NCI-H522 lung = tested on: NCI-H522 lung
COLO 205 colon = tested on: COLO 205 colon
SK-MEL-2 melanoma = tested on: SK-MEL-2 melanoma
SK-MEL-28 melanoma = tested on: SK-MEL-28 melanoma
LOX IMVI melanoma = tested on: LOX IMVI melanoma
OVCAR-5 ovarian = tested on: OVCAR-5 ovarian
HOP-62 NSCLC = tested on: HOP-62 NSCLC
SR leukemia = tested on: SR leukemia
ACHN renal = tested on: ACHN renal
HCT-15 colon = tested on: HCT-15 colon
RPMI-8226 leukemia = tested on: RPMI-8226 leukemia
MCF7 breast = tested on: MCF7 breast
UACC-62 melanoma = tested on: UACC-62 melanoma
UO-31 renal = tested on: UO-31 renal
HOP-92 NSCLC = tested on: HOP-92 NSCLC
NCI-H460 lung = tested on: NCI-H460 lung
DU-145 prostate = tested on: DU-145 prostate
SN12C renal = tested on: SN12C renal
MDA-N = tested on: MDA-N
NCI-H23 lung = tested on: NCI-H23 lung
MDA-MB-435 = tested on: MDA-MB-435
TK-10 renal = tested on: TK-10 renal
RXF 393 renal = tested on: RXF 393 renal
HS 578T breast = tested on: HS 578T breast
HCC-2998 colon = tested on: HCC-2998 colon
HCT-116 colon = tested on: HCT-116 colon
CAKI-1 renal = tested on: CAKI-1 renal
HL-60(TB) leukemia = tested on: HL-60(TB) leukemia
HT29 colon = tested on: HT29 colon
SW-620 colon = tested on: SW-620 colon
SF-295 CNS = tested on: SF-295 CNS
SK-MEL-5 melanoma = tested on: SK-MEL-5 melanoma
MOLT-4 leukemia = tested on: MOLT-4 leukemia
NCI/ADR-RES ovarian = tested on: NCI/ADR-RES ovarian

Measured: TGI

CN(C(=O)c1ccccc1)C1CCCC(=O)CC1 (stereo not given)
not listed: SK-MEL-5 melanoma | MOLT-4 leukemia | NCI/ADR-RES ovarian
> 100 µM: all other assays above

CNc1nc(SC)nc2c1c(N)nn2C
not listed: EKVX NSCLC | SF-539 CNS | SR leukemia | MCF7 breast | HL-60(TB) leukemia
> 100 µM: all other assays above
